Counter-ions that a name gives are not always drawn.
Assay: Solubility in formulation solvents
Format: physicochemical

Row | solubility in ethyl acetate (ethyl acetate) | solubility in ethanol (ethanol) | Compound
1 | highly soluble | – | O=C1CCCCCCCCCCCCCCO1 [Exaltolide]
2 | – | particularly soluble | CCC(C)(C)c1ccc(CC(C)CN2C[C@@H](C)O[C@@H](C)C2)cc1 (stereo partly drawn) [amorolfine HCl, hydrochloride of the cis-4-[3-[4-(1,1-dimethyl-propyl)phenyl]-2-methylpropyl]-2,6-dimethyl-morpholine]

From patent US20110218506A1, “AMOROLFINE PATCH FOR THE TREATMENT OF ONYCHOMYCOSIS” (Galderma Research & Development, priority 2004, published 2011)
